Experimental data taken from article PMC2215728 (The Journal of General Physiology, 1978).
Read-outs that look alike come from different tables or passages of the source.

Assays:
[1] = tested on: everted segments of rat ileum; experiment: Influx of weak electrolytes into everted segments of rat ileum in vitro; settings: for Influx Ileum: Table III; for Resistance Ileum Unstirred layer: Table V, calculated as d/DSc
[2] = tested on: everted segments of rat jejunum; experiment: Influx of weak electrolytes into everted segments of rat jejunum in vitro; settings: for Influx Jejunum: Table III; for Resistance Jejunum Unstirred layer: Table V, calculated as d/DSc; for Ratio of influx and nonionized concentration: J(1 + 10a)/C
[3] = Table III, cited from earlier work
[4] = Partition in two-phase aqueous/organic solvent; format: physicochemical; settings: heptane:aqueous partition of nonionized form
[5] = tested on: everted segments of rat ileum
[6] = tested on: everted segments of rat jejunum
[7] = 0.1 mM solution, observed influx increased by a factor of 10
[8] = 1 mM, pH 7.40, 1 min, 37C, mean SE (n)
[9] = Table I, everted rat jejunum, 1 mM solution, second weak electrolyte (10 mM): Benzoic acid
[10] = Table I, everted rat jejunum, 1 mM solution, second weak electrolyte (10 mM): Benzylamine
[11] = Table I, everted rat jejunum, 1 mM solution, second weak electrolyte (10 mM): Pentanoic acid
[12] = Table II, everted segments (region not stated), pH 7.4
[13] = Table I, everted rat jejunum, 1 mM solution, second weak electrolyte (10 mM): c-Hexylamine

Row | Structure (SMILES) | Resistance Ileum Unstirred layer [1] | Resistance Jejunum Unstirred layer [2] [cm-3.min.100 mg dry wt] | Influx Ileum [1, 8] [nmol.100mg dry wt-1.min-1] | Influx Jejunum [2, 8] [nmol.100mg dry wt-1.min-1] | other results
1 | CCCCCCCCCC(=O)O [Decanoic, decanoic acid] | 2.93 cm-3.min.100 mg dry wt | 2.79 | – | – | Influx Ileum [1, 7]: 158 nmol.100mg dry wt-1.min-1; Influx Jejunum [2, 7]: 361 nmol.100mg dry wt-1.min-1
2 | CC(=O)O [Acetic, acetic acid] | – | – | 3 | 0 | –
3 | O=C(O)C(c1ccccc1)c1ccccc1 [Diphenylacetic] | 2.95 cm-3.min.100 mg dry wt | 2.81 | 7 | 14 | pKa ([3]; ref Ref. 6): 3.94
4 | CCCCCCC(=O)O [Heptanoic] | 2.43 cm-3.min.100 mg dry wt | 2.31 | 50 | 81 | pKa ([3]; ref Ref. 6): 4.89
5 | CCCCCCCO [heptanol] | – | – | – | – | influx of heptanol with pH of incubation saline ([2]; preliminary experiments, range of pH values 7.5-8.5): constant
6 | C=CCN1CC[C@]23c4c5ccc(O)c4O[C@H]2C(=O)CC[C@@]3(O)[C@H]1C5 [Naloxone] | – | 3.38 | 263 | 286 | pKa ([3]; ref Taylor (11)): 6.93
7 | CC(C)N [2-Amino propane] | 1.54 cm-3.min.100 mg dry wt | 1.47 | 4 | 6 | pKa ([3]; ref Ref. 6): 10.63; ratio of kni Hept values for 2-amino-propane and propionic acid [4]: greater than 20
8 | CC(C)CC(=O)O [iso-Pentanoic] | – | – | 20 | 21 | Resistance Ileum Empirical [5]: 5.00x 101; Resistance Ileum Unstirred layer [5]: 2.05; Resistance Jejunum Empirical [6]: 4.76x 101; Resistance Jejunum Unstirred layer [6]: 1.95
9 | NC1CCCCC1 [c-Hexylamine] | 2.05 cm-3.min.100 mg dry wt | 1.95 | 6 | 12 | pKa ([3]; ref Ref. 6): 10.66; Influx [2, 9]: 9 nmol.100mg dry wt-1.min-1; Influx [2, 10]: 12 nmol.100mg dry wt-1.min-1; Influx [2, 11]: 9 nmol.100mg dry wt-1.min-1; Influx [2, 12]: 12; Ratio of influx and nonionized concentration ([2]; Table II, pH 7.4): 22; Ratio of influx and nonionized concentration ([2]; Table II, pH 7.9): 24
10 | CCCCC(=O)O [Pentanoic, Pentanoic acid] | 2.05 cm-3.min.100 mg dry wt | 1.95 | 18 | 22 | Influx [2, 9]: 22 nmol.100mg dry wt-1.min-1; Influx [2, 10]: 18 nmol.100mg dry wt-1.min-1; Influx [2, 13]: 20 nmol.100mg dry wt-1.min-1
11 | CCC(=O)O [Propionic, propionic acid] | 1.61 cm-3.min.100 mg dry wt | 1.53 | 9 | 6 | –
12 | CCCCCCCCCCN [Decylamine] | – | 2.78 | – | – | Influx Jejunum [2, 7]: 264 nmol.100mg dry wt-1.min-1
13 | CCC(=O)C(CC(C)N(C)C)(c1ccccc1)c1ccccc1 (centres unmarked) [Methadone] | 3.93 cm-3.min.100 mg dry wt | 3.74 | 259 | 272 | –
14 | CCCCCC(=O)O [Hexanoic, HEXANOIC ACID] | 2.24 cm-3.min.100 mg dry wt | 2.13 | 29 | 73 | –
15 | CCCC(=O)O [Butyric] | – | – | 11 | 12 | –
16 | CCCCCCCC(=O)O [Octanoic, Octanoic acid] | 2.60 cm-3.min.100 mg dry wt | 2.47 | 56 | 147 | Influx [2, 12]: 145; Influx ([2]; Table II, everted segments (region not stated), pH 7.9): 60; Influx ([2]; Table II, everted segments (region not stated), pH 8.4): 15
17 | CC(C)C(=O)O [iso-Butyric] | 1.84 cm-3.min.100 mg dry wt | 1.75 | 13 | 10 | –
18 | O=C(O)c1ccccc1 [Benzoic, Benzoic acid] | – | – | 15 | 17 | Influx [2, 10]: 19 nmol.100mg dry wt-1.min-1; Influx [2, 11]: 21 nmol.100mg dry wt-1.min-1; Influx [2, 13]: 17 nmol.100mg dry wt-1.min-1
19 | CN1C(=O)NC(=O)C(C)(C2=CCCCC2)C1=O (centres unmarked) [Hexobarbital] | 3.00 cm-3.min.100 mg dry wt | 2.86 | 327 | 348 | pKa ([3]; ref Bush (1)): 8.20
20 | CCC1(c2ccccc2)C(=O)NC(=O)NC1=O [Phenobarbital] | 2.95 cm-3.min.100 mg dry wt | 2.81 | – | 321 | –
21 | O=C(O)Cc1ccccc1 [Phenylacetic, PHENYLACETIC ACID] | 2.27 cm-3.min.100 mg dry wt | 2.16 | 15 | 24 | –
22 | NCc1ccccc1 [Benzylamine] | 2,02 cm-3.min.100 mg dry wt | 1.92 | 155 | 220 | Influx [2, 9]: 221 nmol.100mg dry wt-1.min-1; Influx [2, 13]: 211 nmol.100mg dry wt-1.min-1
